Reference: US7026360B1, “Pharmaceutical compositions containing compounds with activity for the enhancement of absorption of active ingredients” (Inpharma S.A., priority 1999, dated 2006)

Test: Absorption after 8 hours of topical antiinflammatory formulations with or without 3% PFPE through pig skin, Franz cells (Example C)
Format: in vitro ADME
Settings: topical formulation; for mcg of permeated active ingredient after 8 hours, Base formula: base formula without PFPE
Experimental: Apparatus: Franz Cells (manufacturer: Crown Glass Company Inc., New Jersey) Franz diffusion cells are one of the main systems used for the investigation of ex-vivo permeation. This study involved the use of three cells each with a 9 mm diameter donor compartment corresponding with a diffusion area of 64 mm^2. The receptor compartment has a capacity of 4.8 ml. The receptor chamber is heated to 37° C.± 1. The pig skin is placed between the donor compartment and the receptor chamber with the external skin surface facing the upper compartment. The test formulation is placed inside the donor compartment. The receptor chamber is filled with a phosphate buffer solution at pH 7.4 and at intervals between 0.5 and 8 hours, 2 ml of solution are drawn from this chamber. When each sample is taken fresh buffer solution heated to 37° C. is added in order to replenish the initial volume. The samples are then tested using a HPLC method. Each test is repeated three times. Verification of absorption after 8 hours, of topical formulations containing antiinflammatory drugs versus formulations which also contain 3% PFPE, through pig skin, using Franz cells, as described in Example A.

O=C(O)Cc1ccccc1Nc1c(Cl)cccc1Cl [Diclofenac Sodium]
mcg of permeated active ingredient after 8 hours, Base formula + 3% PFPE: 8.66 µg
mcg of permeated active ingredient after 8 hours, Base formula: 1.82 µg

CCc1cccc2c3c([nH]c12)C(CC)(CC(=O)O)OCC3 (centres unmarked) [Etodolic Acid]
mcg of permeated active ingredient after 8 hours, Base formula + 3% PFPE: 9.93 µg
mcg of permeated active ingredient after 8 hours, Base formula: 0.53 µg

CC(C)Cc1ccc(C(C)C(=O)O)cc1 (centres unmarked) [Ibuprofen]
mcg of permeated active ingredient after 8 hours, Base formula + 3% PFPE: 6.84 µg
mcg of permeated active ingredient after 8 hours, Base formula: 0.21 µg

CN1C(C(=O)Nc2ccccn2)=C(O)c2ccccc2S1(=O)=O [Piroxicam]
mcg of permeated active ingredient after 8 hours, Base formula + 3% PFPE: 7.94 µg
mcg of permeated active ingredient after 8 hours, Base formula: 1.19 µg
